Measured values published in article PMC10153383, “Pharmacophore Variants of the Macrocyclic Peptide Triazole Inactivator of HIV-1 Env” (Research Square, 2023).
*1 amine or outer side, *2 acyl side, *3 side chain or, on linkers, in order; H or OH if unused. Where a SMILES comes first, the peptide text is derived from it. Bridges are numbered along the chain shown (N, C = ends). [ ]: non-standard residue; d: D form. X1 = O=C([C@@H]1C[C@H](n2cc(-c3ccc(-c4cccs4)cc3)nn2)CN1[*:1])[*:2]; Trp(5-Br) = N[C@@H](Cc1c[nH]c2ccc(Br)cc12)C(=O)O; Trp(1-Me) = Cn1cc(C[C@H](N)C(=O)O)c2ccccc21

Biological target: T1, YU2 gp120 (Human immunodeficiency virus type 1 group M subtype B, UniProt P35961)
T1 construct: The DNA for gp120YU-2 in pcDNA3.1 vector for transient transfection; made in house; host or cells: HEK-293F
Assay type: binding, HIV-1
Text: A state-of-the-art Biacore S200 SPR optical biosensor, which can resolve dissociation rates of 0.1–1.0 s^−1, was employed to measure the YU2 gp120 binding kinetics of cPT’s. […] The insets in Fig. 3 show the binding isotherms plotted from the binding signals at steady state, as a function of peptide concentration. Reproducibility of the SPR binding assays was verified by running experiments at gp120 densities ranging from 10 to 29 RU/kDa. […] The calculated apparent (KD), the steady state affinities (eq KD) and experimental Rmax or maximum binding capacities for each gp120 surface are reported.
SPR experiments were performed on a Biacore S200 biosensor (Cytiva Global Life Sciences Solutions) at 25°C using PBS-P (10 mM Phosphate, 150 mM NaCl, pH 7.4, 0.005% P-20 and 2 or 5%DMSO) as the running and sample buffers. […] The 9 to 10 cPT concentrations were injected in duplicate spanning 1000-fold (~ 0.001 to 2.0 μM) at a flow rate of 75–100 μL/min where associations were monitored for 3 minutes and the final dissociation phase in running buffer monitored for 5 minutes for complete dissociation or by injecting two 9-second pulses of 10 mM glycine pH 2.0 to remove any bound analyte. […]

Row | Structure (SMILES) | increase in dissociation rate relative to parent peptide (SPR, MG-I-13 vs AAR029N2, MG-II-55 vs MG-II-20) [fold] | equilibrium binding isotherm KD, fold lower (affinity) versus AAR029N2 (SPR steady state isotherm, Fig. 3C inset) [fold]
1 | CC[C@H](C)[C@@H]1NC(=O)[C@H](CC(N)=O)NC(=O)[C@@H](N)CC(=O)NCCCC[C@@H](C(N)=O)NC(=O)[C@H](Cc2c[nH]c3ccc(Br)cc23)NC(=O)[C@@H]2C[C@H](n3cc(-c4ccc(-c5cccs5)cc4)nn3)CN2C1=O [MG-I-13] (H-DNI[X1][Trp(5-Br)]K-NH2; lactam 1-6; N-terminus and C-terminus assumed) | 2.5 | –
2 | CC[C@H](C)[C@@H]1NC(=O)[C@H](CC(N)=O)NC(=O)[C@@H](N)CC(=O)NCCCC[C@@H](C(N)=O)NC(=O)[C@H](Cc2cn(C)c3ccccc23)NC(=O)[C@@H]2C[C@H](n3cc(-c4ccc(-c5cccs5)cc4)nn3)CN2C1=O [MG-II-39] (H-DNI[X1][Trp(1-Me)]K-NH2; lactam 1-6; N-terminus and C-terminus assumed) | – | 5
